Experiments:
Assay type in all cases: cell-based
TLR7 = target: T1, TLR7 (Mus musculus, UniProt P58681); experiment: In vitro TLR7 small molecule screening: murine TNFα production by bone marrow-derived murine macrophages; details: murine TNFα by ELISA after overnight culture; 1000 to 0.06 nM; non-linear regression
T1 construct: endogenous in cells; host or cells: Balb/c mouse bone marrow-derived macrophages, differentiated with M-CSF
T1 sequence (P58681 27-1050): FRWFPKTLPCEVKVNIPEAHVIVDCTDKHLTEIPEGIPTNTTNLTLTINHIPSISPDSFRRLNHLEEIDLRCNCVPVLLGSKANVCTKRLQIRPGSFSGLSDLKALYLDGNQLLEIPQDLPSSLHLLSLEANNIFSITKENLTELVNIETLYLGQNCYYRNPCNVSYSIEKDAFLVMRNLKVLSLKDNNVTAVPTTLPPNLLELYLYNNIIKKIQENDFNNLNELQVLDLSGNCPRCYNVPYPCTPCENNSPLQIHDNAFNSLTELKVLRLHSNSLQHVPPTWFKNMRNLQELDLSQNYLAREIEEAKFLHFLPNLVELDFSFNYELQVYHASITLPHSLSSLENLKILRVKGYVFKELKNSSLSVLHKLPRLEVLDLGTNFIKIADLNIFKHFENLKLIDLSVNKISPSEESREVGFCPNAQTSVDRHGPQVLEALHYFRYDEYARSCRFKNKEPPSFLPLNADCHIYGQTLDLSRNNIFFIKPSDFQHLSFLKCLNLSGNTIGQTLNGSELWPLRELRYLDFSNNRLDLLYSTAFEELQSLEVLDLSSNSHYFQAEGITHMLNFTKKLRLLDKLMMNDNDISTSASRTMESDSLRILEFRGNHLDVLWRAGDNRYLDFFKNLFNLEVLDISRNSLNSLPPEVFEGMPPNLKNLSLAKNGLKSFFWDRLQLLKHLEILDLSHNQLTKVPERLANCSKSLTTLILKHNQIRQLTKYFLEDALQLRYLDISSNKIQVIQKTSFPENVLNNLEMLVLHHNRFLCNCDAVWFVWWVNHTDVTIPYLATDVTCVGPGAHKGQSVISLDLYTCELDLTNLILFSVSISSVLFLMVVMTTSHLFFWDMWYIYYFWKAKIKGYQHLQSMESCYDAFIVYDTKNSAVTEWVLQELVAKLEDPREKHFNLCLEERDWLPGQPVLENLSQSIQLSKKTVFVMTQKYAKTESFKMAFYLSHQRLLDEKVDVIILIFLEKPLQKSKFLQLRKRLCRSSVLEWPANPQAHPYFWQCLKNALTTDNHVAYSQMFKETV
Protocol: Murine macrophages were derived from bone marrow cells from a Balb/c mouse. Briefly, murine bone marrow cells were isolated and resuspended in cDMEM media (high glucose DMEM (HyClone) supplemented with 10% fetal bovine serum (HyClone), 1 mM Sodium Pyruvate (HyClone), 2 mM L-glutamine (Gibco), 10 mM HEPES (HyClone), 1×NEAA (Gibco), 50 U/mL penicillin, 50 U/mL streptomycin (HyClone)) and seeded at 5e5 cells/mL in the presence of 20 ng/mL murine M-CSF (Peprotech) and incubated at 37° C., 5% CO2 for 7 days to differentiate into murine macrophages.
After differentiation, bone marrow-derived murine macrophages were plated in 96-well flat bottom microtiter plates (80,000/well) along with titrating concentrations of TLR7 small molecules ranging from 1000 to 0.06 nM in cRPMI media (RPMI-1640 (HyClone) supplemented with 10% fetal bovine serum (HyClone), 1 mM Sodium Pyruvate (HyClone), 2 mM L-glutamine (Gibco), 10 mM HEPES (HyClone), 1×NEAA (Gibco), 50 U/mL penicillin, 50 U/mL streptomycin (HyClone)). After overnight culture, supernatants were harvested and murine TNFα levels were determined by ELISA (BioLegend). Table 4. […] Data was analyzed using GraphPad Prism 7.01 software (GraphPad Software) and EC50 values calculated using non-linear regression. The TLR7 small molecules were active, stimulating production of murine TNFα in a dose-dependent manner from the murine macrophages. Compound A is represented by the formula: […]

[1] = tested on: BMDM with SK-BR-3 (HER2pos); experiment: mTNFα from mouse bone marrow derived macrophages co-cultured with SK-BR-3 (HER2pos) cells; details: 24 hours co-culture with HER2pos SK-BR-3
Protocol: (§1) The ability of an anti-HER2-TLR7 conjugate to specifically activate mouse macrophages when bound to tumor cells by HER2 was assessed in vitro as follows. Bone marrow cells were harvested from BALB/cJ mouse femurs and tibias using a 27-gauge needle attached to a 3 mL syringe filled with growth media (DMEM supplemented with 10% Fetal Bovine Serum, 1 mM Sodium Pyruvate, 1× GlutaMAX-1, 1× Non-Essential Amino Acids, 10 mM HEPES and 0.5% Penicillin/Streptomycin). Bone marrow cells were centrifuged, and RBC lysed before being counted and resuspended at a concentration 5×10^5/mL in growth media. Ten mL of cell suspension was placed in 10 cm dishes and 20 ng/mL murine macrophage-colony-stimulating factor (mM-CSF) was added. Cells were incubated for two days, media replaced with fresh growth media containing 20 ng/mL mM-CSF, and then cultured for a further four days. BMDM and tumor cell lines SK-BR-3 (HER2pos) or MDA-MB-468 (HER2neg) were removed from plates with Accutase cell detachment solution and counted. […] Murine TNFα (mTNFα) levels in the supernatant were determined by mTNFα ELISA Kit (BioLegend) and read on an Envision Plate Reader (Perkin Elmer, Waltham, Mass.) according to manufactures instructions. mTNFα levels were then graphed using GraphPad Prism 7.01 software (GraphPad Software, San Diego, Calif.) and EC50 values generated using non-linear regression curve fit.

[2] = tested on: BMDM with MDA-MB-468 (HER2neg); experiment: mTNFα from mouse bone marrow derived macrophages co-cultured with MDA-MB-468 (HER2neg) cells; details: 24 hours co-culture with HER2neg MDA-MB-468
Protocol: as §1

| Structure (SMILES) | EC50 (TLR7) [nM] | activation of mouse bone marrow cells (mTNFα) [1] | activation of mouse bone marrow cells (mTNFα) [2] |
| --- | --- | --- | --- |
| CCOCc1nc2c(N)nc3ccccc3c2n1CC(C)(C)OCCNC(=O)C(C)(C)N [Compound 1.2, 2-amino-N-(2-((1-(4-amino-2-(ethoxymethyl)-1H-imidazo[4,5-c]quinolin-1-yl)-2-methylpropan-2-yl)oxy)ethyl)-2-methylpropanamide] |  | potently activating | potently activating |
| CCOCc1nc2c(NC(=O)[C@H](C)NC(=O)C3CCCN3C(=O)OC(C)(C)C)nc3ccccc3c2n1CC(C)(C)OCCNC(=O)C(C)(C)NC(=O)OCc1ccccc1 (stereo partly drawn) [Compound 1.7, tert-butyl 2-(((S)-1-((2-(ethoxymethyl)-1-(5,5,11,11-tetramethyl-3,6-dioxo-1-phenyl-2,10-dioxa-4,7-diazadodecan-12-yl)-1H-imidazo[4,5-c]quinolin-4-yl)amino)-1-oxopropan-2-yl)carbamoyl)pyrrolidine-1-carboxylate] | 503 |  |  |
| CCOCc1nc2c(NC(=O)[C@H](C)N)nc3ccccc3c2n1CC(C)(C)OCCNC(=O)C(C)(C)NC(=O)OCc1ccccc1 [Compound 1.6, benzyl (S)-(1-((2-((1-(4-(2-aminopropanamido)-2-(ethoxymethyl)-1H-imidazo[4,5-c]quinolin-1-yl)-2-methylpropan-2-yl)oxy)ethyl)amino)-2-methyl-1-oxopropan-2-yl)carbamate] | 657 |  |  |
| CCOCc1nc2c(NC(=O)[C@H](CCCNC(N)=O)NC(=O)[C@@H](NC(=O)OCC3c4ccccc4-c4ccccc43)C(C)C)nc3ccccc3c2n1CC(C)(C)OCCNC(=O)OC(C)(C)C [Compound 1.8, (9H-fluoren-9-yl)methyl ((S)-1-(((S)-1-((1-(2-(2-((tert-butoxycarbonyl)amino)ethoxy)-2-methylpropyl)-2-(ethoxymethyl)-1H-imidazo[4,5-c]quinolin-4-yl)amino)-1-oxo-5-ureidopentan-2-yl)amino)-3-methyl-1-oxobutan-2-yl)carbamate] | 59 |  |  |
| CCOCc1nc2c(NC(=O)[C@H](C)NC(=O)OC(C)(C)C)nc3ccccc3c2n1CC(C)(C)OCCNC(=O)C(C)(C)NC(=O)OCc1ccccc1 [Compound 1.3, benzyl (S)-(1-((2-((1-(4-(2-((tert-butoxycarbonyl)amino)propanamido)-2-(ethoxymethyl)-1H-imidazo[4,5-c]quinolin-1-yl)-2-methylpropan-2-yl)oxy)ethyl)amino)-2-methyl-1-oxopropan-2-yl)carbamate] | 1680 |  |  |
| CCOCc1nc2c(NC(=O)[C@H](CCCNC(N)=O)NC(=O)[C@@H](N)C(C)C)nc3ccccc3c2n1CC(C)(C)OCCNC(=O)OC(C)(C)C [Compound 1.5, tert-butyl (2-((1-(4-((S)-2-((S)-2-amino-3-methylbutanamido)-5-ureidopentanamido)-2-(ethoxymethyl)-1H-imidazo[4,5-c]quinolin-1-yl)-2-methylpropan-2-yl)oxy)ethyl)carbamate] | 4 |  |  |

Continued, in another order:

| EC50 (TLR7) [nM] | Structure (SMILES) | activation of mouse bone marrow cells (mTNFα) [1] | activation of mouse bone marrow cells (mTNFα) [2] |
| --- | --- | --- | --- |
| 20 | CCOCc1nc2c(N)nc3ccccc3c2n1CC(C)(C)OCCNC(=O)C(C)(C)NC(=O)OCc1ccccc1 [Compound 1.1, benzyl (1-((2-((1-(4-amino-2-(ethoxymethyl)-1H-imidazo[4,5-c]quinolin-1-yl)-2-methylpropan-2-yl)oxy)ethyl)amino)-2-methyl-1-oxopropan-2-yl)carbamate] |  |  |
| 1.2 | CCOCc1nc2c(N)nc3ccccc3c2n1CC(C)(C)OCCNC(=O)OC(C)(C)C [Compound 1.4, tert-butyl (2-((1-(4-amino-2-(ethoxymethyl)-1H-imidazo[4,5-c]quinolin-1-yl)-2-methylpropan-2-yl)oxy)ethyl)carbamate] |  |  |
| 73 | CCOCc1nc2c(N)nc3ccccc3c2n1CC(C)(C)OCCN [Compound A, reference compound] |  |  |
